Experimental data: patent US20110280930A1, “PRODUCTS AND METHODS FOR STIMULATING AN IMMUNE RESPONSE” (priority 2008, published 2011)

Tested on: DN32.D3 cells
Test: αGalCer presentation by B cells to iNKT cells (IL-2 production)
Format: cell-based, mouse
Settings: MD4 B cells pulsed with particles or soluble αGalCer, then cocultured with DN32.D3 cells; IL-2 by ELISA
Protocol: Splenic B cells were enriched by negative selection to >99% purity using B cell purification kit (Miltenyi Biotec). For analysis of αGalCer presentation, B cells were incubated overnight with particles containing αGalCer and/or HEL, extensively washed and cultured at 5×10^4 cells per well with the same number of DN32.D3 cells. NKT activation was assayed by measuring IL-2 production in the culture supernatant. For blocking experiments MD4 B cells were incubated with an antiCDld blocking antibody (25 μg/ml; clone 1B1) for 2 h before incubation with iNKT cells.
Concentration of IL-2 in the supernatant of the cultures was determined by ELISA using the JES6-1A12 capture antibody (BD Pharmingen). Biotinylated JSE6-5H4 (BD Pharmingen) was used for detection. Specific antibody in mice sera were measured using plates coated with antigen (HEL, OVA or CGG) and serial dilutions of sera. Bound antibodies were detected with biotin-labelled goat anti-mouse IgM, IgG, IgG1, IgG2b, IgG2c or IgG3 (BD Pharmingen).
We aspired to investigate the impact of targeting iNKT cell help to antigen specific B cells during the development of an immune response. […] Alexa-488-labeled-αGalCer was used to quantify the amount of αGalCer loaded on the beads, and we found this to be 150 ng per μl of beads (10^8 beads/μl). […]

CCCCCCCCCCCCCCCCCCCCCCCCCC(=O)N[C@@H](CO[C@H]1O[C@H](CO)[C@H](O)[C@H](O)[C@H]1O)[C@H](O)[C@H](O)CCCCCCCCCCCCCC [soluble αGalCer, α-galactosylceramide]
iNKT cell activation (IL-2 production): efficiently presented by B cells and induced IL-2 production
